In data set [1] the test system is influenza virus. As to the kind of experiment: microbe, parasite or virus in culture. It is filed as cell-based. Particulars: for Selectivity Index: CC50 divided by IC50; for IC50: unidentified influenza virus.
A further data set is described as follows: water-solubility. It is filed as physicochemical.
The next data set in a line: in vitro. The settings on record: dog.
The test system of a further data set is H1N1 virus. As to the kind of experiment: in vivo antiviral effect in mice infected with H1N1. The settings on record: for survival rate: nasal administration.
The test system of a further data set is influenza H1N1 virus. The format is cell-based, influenza virus A.
For data set [2], the system named is influenza viruses H1N1; H3N2; H5N1; H7N7; H7N9; H9N2. The format is cell-based, influenza virus A. Particulars: 20, 5, 1.25, 0.31 μM; 24 h after inoculation; MOI 0.002; RT-qPCR. A general note: In qPCR the cycle at which signal appears reflects the starting amount.
The next data set has as its system H5N1 influenza virus. The format is in vivo, BALB/c mice. Particulars: 1×LD50 dose of H5N1; nasal administration, 5 doses; PB2-39 2.5 mg/kg, zanamivir 20 μl of 2.5 mg/ml.
The test system of a further data set is H7N9 virus. The format is in vivo, BALB/c mice. Particulars: 1×LD80 dose of H7N9; nasal administration, 5 doses; PB2-39 2.5 mg/kg, zanamivir 20 μl of 2.5 mg/ml.
Data set [3] has as its system influenza virus. The experiment in a line: lung viral load and histopathology in infected mice (PB2-39 study). Particulars: fourth day following inoculation.
The mark [4] stands for this setting: 1×LD60 dose of H1N1, PB2-19 1 mg/kg.
The mark [5] stands for this setting: 1×LD60 dose of H1N1, PB2-19 1 mg/kg body weight.
Where [6] appears, read: 5×LD50 dose of H1N1, 5 doses from 6 h after inoculation, PB2-39 2.5 mg/kg, zanamivir 20 μl of 2.5 mg/ml.

Consider `Cc1cc(C(=O)Nc2ccc(I)cc2C(=O)O)ccc1[N+](=O)[O-]` [PB2-19, 5-iodo-2-[(3-methyl-4-nitrobenzoyl)amino]benzoic acid], for which, in the data set on influenza virus [1], the “Selectivity Index” value worked out at 273 and the midpoint of inhibition, the IC50, lay at 0.55 ± 0.05 µM. Also, the water-solubility result in the data set “water-solubility” is “limited”. In addition, the CC50 in “in vitro” was determined as 150 ± 10 µM. Besides, in the data set on H1N1 virus (setting [4]), the histopathological findings entry is “corroborated the ability of PB2-19 to provide in vivo anti-influenza effects” and the “viral proliferation in the lungs” value is “effectively reduce”. In the data set with H1N1 virus (setting [5]), the survival rate was 100%.

In the case of `Cc1ccc(C(c2c(O)c3ccccc3oc2=O)c2c(O)c3ccccc3oc2=O)cc1` [PB2-35, 3,3′-[(4-methylphenyl)methylene]bis(4-hydroxy-2H-chromen-2-one)], in the data set with influenza virus [1], the “Selectivity Index” value was 40 and the IC50 amounted to 1.24 ± 0.21 µM. Besides, the CC50 in “in vitro” amounted to 50 ± 5 µM.

For the molecule `O=c1oc2ccccc2c(O)c1C1c2c(c3ccccc3oc2=O)Oc2c1c(=O)oc1ccccc21` [PB2-39, 7-(4-hydroxy-2-oxo-2H-chromen-3-yl)-6H,7H,8Hchromeno[3,4′:5,6]pyrano[3,2-c]chromene-6,8-dione], in the data set on influenza virus [1], the concentration for half-maximal inhibition (IC50) worked out at 1.22 ± 0.23 µM. Also, in the data set with influenza H1N1 virus, the “reduction of the viral titer of supernatant” value was 100-1000 times. In addition, in [2], the “inhibition of replication of tested influenza strains” value is “inhibited the replication of all the tested influenza strains in a dose-dependent manner”. In addition, the survival rate in the data set on H5N1 influenza virus, with H7N9 virus and with H1N1 virus (setting [6]) was 100% throughout. The same molecule displayed a CC50 in “in vitro” above 1000 µM. The “amounts of viruses in lung tissues” value in the data set on influenza virus [3] (plaque assay, PB2-39 2.5 mg/kg nasal) is on record as “significantly reduced”. The “histopathological examination: interstitial inflammatory cell infiltration and alveolar injury” value with influenza virus [3] (lung tissues) is given as “improvement”.

In the case of `CC(=O)N[C@H]1[C@H]([C@H](O)[C@H](O)CO)OC(C(=O)O)=C[C@@H]1N=C(N)N` [zanamivir, reference compound], the survival rate in the data set on H5N1 influenza virus, in the data set with H7N9 virus, in the data set with H1N1 virus (setting [5]) and in the data set on H1N1 virus (setting [6]) was 100% throughout.

The IC50 is the point on the concentration scale where inhibition reaches its midpoint.

The record behind these values is patent US10792275B2 (priority 2016, dated 2020).
